This is an account of results in US7476509B2, “Compounds and methods for modulating functions of nonclassical cadherins” (Adherex Technologies Inc., priority 2002, dated 2009).

For the assay, the system named is SKOV3 human ovarian cancer cells. Put plainly: Effects of ADH358 on confluent cultures of SKOV3 cells (disruption of cell adhesion, microscopic examination). It is filed as cell-based. The note with it: 1 mg/ml of culture medium, 24 hours of treatment. The protocol: We investigated the effects of the linear peptide ADH358 (H-RWAPIP-NH2 (SEQ ID NO: 2); Desmocollin derived peptide) on confluent cultures of SKOV3 cells. SKOV3 human ovarian cancer cells express desmosomes (which are composed of desmocollins and desmogleins). SKOV3 human ovarian cancer cells were obtained from Dr. Riaz Farookhi, McGill University, Montreal, Canada. The cells were cultured in minimum essential medium (MEM) supplemented with 10% fetal calf serum, non-essential amino acids, fungizone, penicillin-streptomycin, and gentamicin in a humidified atmosphere (5% CO2) at 37° C. All culture reagents were purchased from GIBCO (Burlington, ON). ADH358 (1 mg/ml of culture medium) was added to confluent cultures of SKOV3 cells. After 24 hours of treatment, the cells were fixed with 4% paraformaldehyde, followed by 3 washes with phosphate buffered saline, and then stained with hematoxylin. Control cultures were grown in the absence of peptide.

H-RWAPIP-NH2 [ADH358]: the “cell morphology / cell-cell attachment of SKOV3 cells” value is “detach from one another and adopt an elongated, fibroblast-like morphology”. Further, where the note is “hematoxylin stain, vs control cultures without peptide”, the “effect on confluent SKOV3 monolayers (cell adhesion)” value is recorded as “disruption of the confluent SKOV3 monolayers”.
